Usually IC50 stands for the concentration that gives 50% inhibition. A low value points to inhibition by little substance. In general, Ki refers to the equilibrium dissociation constant of an inhibitor or competing ligand from its target.

One assay deals with L1210. In words: Inhibitory concentration against growth of L1210 cell line. Particulars: Mus musculus. The assay is classed as functional, cell-based.
A short description of assay [1]: Cell-growth inhibition against SCC25 cell line. The class given is functional, cell-based. Particulars: Homo sapiens, SCC-25.
A short description of assay [2]: Cell-growth inhibition against SCC25/R1 cell line. The class given is functional, cell-based. The note with it: Homo sapiens, SCC-25.
Assay [3] can be described thus: Cell-growth inhibition against SCC15 cell line. The assay is classed as functional, cell-based. The note with it: Homo sapiens, SCC-15.
A short description of assay [4]: Cell-growth inhibition against SCC15/R1 cell line. Particulars: Homo sapiens, SCC-15. The class given is functional, cell-based.
For the next assay, the system named is L1210 ( R81). The experiment in a line: Inhibitory concentration against growth of L1210/R81 cell line. The assay is classed as functional, cell-based. The note with it: Mus musculus.
The target of a further assay is T1, Dihydrofolate reductase (Mus musculus, UniProt P00375).
T1 sequence (P00375 whole entry): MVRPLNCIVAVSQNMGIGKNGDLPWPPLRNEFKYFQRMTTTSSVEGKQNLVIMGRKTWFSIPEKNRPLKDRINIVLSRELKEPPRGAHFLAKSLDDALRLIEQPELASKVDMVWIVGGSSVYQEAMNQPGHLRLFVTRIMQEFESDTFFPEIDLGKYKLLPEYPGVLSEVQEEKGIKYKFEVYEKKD

A short description of assay [5]: Inhibition of FPGS from mouse liver in the presence of folic acid. The class given is functional.
Assay [6] deals with SCC-25. In words: Inhibitory concentration against growth of SCC25/R1 cell line. Particulars: Homo sapiens. The class given is functional, cell-based.
In assay [7] the test system is SCC-15. The experiment in a line: Inhibitory concentration against growth of SCC15 cell line. The assay is classed as functional, cell-based. The note with it: Homo sapiens.
Assay [8] concerns SCC-15. In words: Inhibitory concentration against growth of SCC15/R1 cell line. The assay is classed as functional, cell-based. Particulars: Homo sapiens.
The subject of assay [9] is SCC-25. The experiment in a line: Inhibitory concentration against growth of SCC25 cell line. The note with it: Homo sapiens. The assay is classed as functional, cell-based.

Description for Dihydrofolate reductase: Inhibition of dihydrofolate reductase (DHFR) from murine leukemia cells

Take `Nc1nc(N)c2nc(CNc3ccc(C(=O)NC(CCCNC(=O)c4ccccc4C(=O)O)C(=O)O)cc3)cnc2n1` (stereo not given): the half-inhibitory concentration (IC50) with L1210 came to 0.00075 µM; in assay [1] it was 0.00096 µM; in assay [2], 0.0013 µM; in assay [3], 0.0011 µM; in assay [4], 0.004 µM.
Regarding `CC(=O)NCCCC(NC(=O)c1ccc(N(C=O)Cc2cnc3nc(N)nc(N)c3n2)cc1)C(=O)O` (stereo not given), the figures for the IC50 with L1210 ( R81), with L1210 and against Dihydrofolate reductase were 230 µM, 0.41 µM and 0.053 µM, respectively.
For the compound `Nc1nc(N)c2nc(CNc3ccc(C(=O)NC(CCCNC(=O)c4ccccc4)C(=O)O)cc3)cnc2n1` (stereo not given), in assay [5], the Ki was above 100 µM. For the same compound, the IC50 with L1210 ( R81) is 17 µM; in the assay with L1210 it was 0.00089 µM; on Dihydrofolate reductase, 0.027 µM.
Take `Nc1nc(N)c2nc(CN(C=O)c3ccc(C(=O)NC(CCCNC(=O)c4ccccc4)C(=O)O)cc3)cnc2n1` (stereo not given): the Ki in assay [5] is above 1000 µM. Also, the 50% inhibitory concentration (IC50) in the assay with L1210 ( R81) stood at 156 µM; with L1210, 0.02 µM; at Dihydrofolate reductase it was 0.034 µM.
In the case of `Nc1nc(N)c2nc(CNc3ccc(C(=O)N[C@@H](CCCNC(=O)c4ccc(Cl)c(Cl)c4)C(=O)O)cc3)cnc2n1`, the IC50 in the assay with L1210 was 0.032 µM; on Dihydrofolate reductase, 0.045 µM.
On to `NCCCC(NC(=O)c1ccc(NCc2cnc3nc(N)nc(N)c3n2)cc1)C(=O)O` (stereo not given), for which the Ki in assay [5] came out at 0.15 µM.
The same measure, in the same setting: next, `Nc1nc(N)c2nc(CN(C=O)c3ccc(C(=O)NC(CCCNC(=O)CCC(=O)O)C(=O)O)cc3)cnc2n1` (stereo not given): above 100 µM.
With `Nc1nc(N)c2nc(CN(C=O)c3ccc(C(=O)NC(CCCNC(=O)c4ccc(Cl)cc4)C(=O)O)cc3)cnc2n1` (stereo not given), the Ki in assay [5] was above 100 µM. In addition, the IC50 in the assay on L1210 ( R81) was above 200 µM; in the assay on L1210, 0.2 µM; against Dihydrofolate reductase, 0.015 µM.
`NCCCC(NC(=O)c1ccc(N(C=O)Cc2cnc3nc(N)nc(N)c3n2)cc1)C(=O)O` (stereo not given): the Ki in assay [5] is 0.65 µM.
`Nc1nc(N)c2nc(CN(C=O)c3ccc(C(=O)NC(CCCNC(=O)c4ccc(Cl)c(Cl)c4)C(=O)O)cc3)cnc2n1` (stereo not given): the IC50 is above 200 µM in the assay on L1210 ( R81), 3.2 µM in the assay on L1210 and 0.056 µM on Dihydrofolate reductase.
Turning to `Nc1nc(N)c2nc(CNc3ccc(C(=O)NC(CCCNC(=O)CCC(=O)O)C(=O)O)cc3)cnc2n1` (stereo not given), the Ki in [5] was determined as 44 µM.
Consider `CN(Cc1cnc2nc(N)nc(N)c2n1)c1ccc(C(=O)NC(CCC(=O)OC(C)(C)C)C(=O)O)cc1` (stereo not given), for which the IC50 in assay [1] amounted to 0.4 µM; in [2] it was 0.78 µM; in assay [3], 0.6 µM; in assay [4], 1.3 µM.
As for `CC(=O)NCCCC(NC(=O)c1ccc(NCc2cnc3nc(N)nc(N)c3n2)cc1)C(=O)O` (stereo not given), the inhibition constant Ki in assay [5] came to 68 µM. Besides, the values for the IC50 in the assay with L1210 ( R81), with L1210 and on Dihydrofolate reductase were 81 µM, 0.017 µM and 0.028 µM, respectively.
With `Nc1nc(N)c2nc(CNc3ccc(C(=O)NC(CCCNC(=O)c4ccc(Cl)cc4)C(=O)O)cc3)cnc2n1` (stereo not given), the results for the IC50 in the assay on L1210 ( R81), in the assay on L1210 and on Dihydrofolate reductase were 27 µM, 0.0032 µM and 0.028 µM, respectively.
On to `CN(Cc1cnc2nc(N)nc(N)c2n1)c1ccc(C(=O)N[C@@H](CCC(=O)O)C(=O)O)cc1` [METHOTREXATE], for which the IC50 in the assay with L1210 ( R81) was found to be 200 µM; in the assay with SCC-25 [6], 0.15 µM; in the assay with SCC-15 [7], 0.038 µM; with SCC-15 [8], 0.58 µM; with SCC-25 [9] it was 0.0075 µM.

(Values after ChEMBL document CHEMBL1124148 (J Med Chem, 1988).)
